Source: PMC11722180, “Structure–Activity Relationship Studies of Tetracyclic Pyrrolocarbazoles Inhibiting Heterotetrameric Protein Kinase CK2” (Molecules, 2024)
Counter-ions that a name gives are not always drawn.

Target: T1, CK2α/CK2β interaction (human CK2α1–335, human CK2β1–193) (Homo sapiens, UniProt P68400)
T1 construct: human CK2α^1–335; made in house
T1 sequence (P68400 1-335): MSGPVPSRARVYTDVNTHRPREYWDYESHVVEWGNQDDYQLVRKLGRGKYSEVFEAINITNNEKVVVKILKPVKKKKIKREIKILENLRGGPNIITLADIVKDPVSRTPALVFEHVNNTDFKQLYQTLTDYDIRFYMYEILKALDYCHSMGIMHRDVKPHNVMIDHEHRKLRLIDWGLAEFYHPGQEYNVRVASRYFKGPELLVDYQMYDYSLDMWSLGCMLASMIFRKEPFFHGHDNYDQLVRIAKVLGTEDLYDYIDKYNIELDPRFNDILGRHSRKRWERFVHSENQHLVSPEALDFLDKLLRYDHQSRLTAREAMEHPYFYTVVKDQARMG
Assay: Microscale thermophoresis (MST) assay of the CK2α/CK2β subunit interaction
Assay type: binding
Settings: for Ki / Inhibition of CK2α/CK2β Interaction Ki: MST, global analysis, KD′ = KD [1 + (ccompound/Ki)], n.s. = KD′ not significantly different from KD; for Ki: read-out: Inhibition of CK2α/CK2β Interaction Ki
Method: A microscale thermophoresis (MST) assay was used to determine the interaction of the CK2α and CK2β subunits. In this assay, a constant concentration of the fluorescently labeled CK2β subunit was added to increasing concentrations of the CK2α subunit and the thermophoretic shift was recorded, respectively. […] The same experiment was performed in the presence of 20, 50, or 100 µM of the test compounds (see Table 1). An increased KD′ value in the presence of the test compounds was evaluated as the inhibition of the association of the CK2α and CK2β subunits. The increased KD′ value was then transformed together with the employed concentration of the test compound into the Ki value for the inhibition of the CK2α/CK2β association (formula see Supporting Information).
The compounds were investigated at a final concentration of 20, 50, or 100 µM. […] Data analysis and statistical evaluation were conducted with GraphPad Prism v.6 for Windows (GraphPad Software, La Jolla, CA, USA, www.graphpad.com).

| Structure (SMILES) | Kd [µM] | Ki [µM] | Inhibition of CK2α/CK2β Interaction Ki | Inhibition of CK2α/CK2β Interaction Ki (listed as 22c) | Inhibition of CK2α/CK2β Interaction Ki (listed as 23) |
| --- | --- | --- | --- | --- | --- |
| CCOC(=O)[C@@H]1c2[nH]c3ccccc3c2[C@@H](c2cc(OC)c(OC)c(OC)c2)[C@H]2C(=O)N(C)C(=O)[C@H]21 (racemic) [(±)-9b, Ethyl (3aRS,4SR,10RS,10aRS)-2-methyl-1,3-dioxo-10-(3,4,5-trimethoxyphenyl)-1,2,3,3a,4,5,10,10a-octahydropyrrolo[3,4-b]carbazole-4-carboxylate] | 0.014 ± 0.006 |  | n.s. |  |  |
| COc1cc([C@@H]2c3c([nH]c4ccccc34)[C@@H](C(=O)O)[C@@H]3C(=O)NC(=O)[C@H]23)cc(OC)c1OC (racemic) [(±)-10, (3aRS,4SR,10RS,10aRS)-1,3-Dioxo-10-(3,4,5-trimethoxyphenyl)-1,2,3,3a,4,5,10,10a-octahydropyrrolo[3,4-b]carbazole-4-carboxylic acid] | 0.758 ± 0.338 | 1.9 |  |  |  |
| CNC(=O)[C@@H]1c2[nH]c3ccccc3c2[C@@H](c2cc(OC)c(OC)c(OC)c2)[C@H]2C(=O)NC(=O)[C@H]21 (racemic) [(±)-11, (3aRS,4SR,10RS,10aRS)-N-Methyl-1,3-dioxo-10-(3,4,5-trimethoxyphenyl)-1,2,3,3a,4,5,10,10a-octahydropyrrolo[3,4-b]carbazole-4-carboxamide] | 0.132 ± 0.043 | 6 |  |  |  |
| COc1cc([C@@H]2c3c([nH]c4ccccc34)[C@@H](C(=O)NCc3ccccc3)[C@@H]3C(=O)NC(=O)[C@H]23)cc(OC)c1OC (racemic) [(±)-12, (3aRS,4SR,10RS,10aRS)-N-Benzyl-1,3-dioxo-10-(3,4,5-trimethoxyphenyl)-1,2,3,3a,4,5,10,10a-octahydropyrrolo[3,4-b]carbazole-4-carboxamide] | 0.062 ± 0.019 | 14 |  |  |  |
| COc1cc([C@@H]2c3c([nH]c4ccccc34)[C@@H](C(=O)NCc3ccc(Cl)cc3)[C@@H]3C(=O)NC(=O)[C@H]23)cc(OC)c1OC (racemic) [(±)-13, (3aRS,4SR,10RS,10aRS)-N-(4-Chlorobenzyl)-1,3-dioxo-10-(3,4,5-trimethoxyphenyl)-1,2,3,3a,4,5,10,10a-octahydropyrrolo[3,4-b]carbazole-4-carboxamide] | 0.017 ± 0.003 |  | n.s. |  |  |
| COc1cc([C@@H]2c3c([nH]c4ccccc34)[C@@H](C(=O)N3CCCCC3)[C@@H]3C(=O)NC(=O)[C@H]23)cc(OC)c1OC (racemic) [(±)-16, (3aRS,4SR,10RS,10aRS)-4-[(Piperidin-1-yl)carbonyl]-10-(3,4,5-trimethoxyphenyl)-4,5,10,10a-tetrahydropyrrolo[3,4-b]carbazole-1,3(2H,3aH)-dione] | 0.072 ± 0.012 | 9.7 |  |  |  |
| COc1cc([C@@H]2c3c([nH]c4ccccc34)[C@@H](C(=O)Nc3nc4ccccc4[nH]3)[C@@H]3C(=O)NC(=O)[C@H]23)cc(OC)c1OC (racemic) [(±)-17, (3aRS,4SR,10RS,10aRS)-N-(1H-Benzimidazol-2-yl)-1,3-dioxo-10-(3,4,5-trimethoxyphenyl)-1,2,3,3a,4,5,10,10a-octahydropyrrolo[3,4-b]carbazole-4-carboxamide] | 0.093 ± 0.013 | 7.1 |  |  |  |
| CCOC(=O)[C@H]1c2[nH]c3ccccc3c2[C@H](c2ccc(N)cc2)[C@@H]2C(=O)NC(=O)[C@@H]21 (racemic) [(±)-22a, Ethyl (3aRS,4SR,10RS,10aRS)-10-(4-aminophenyl)-1,3-dioxo-1,2,3,3a,4,5,10,10a-octahydropyrrolo[3,4-b]carbazole-4-carboxylate∙HCl] | 0.031 ± 0.011 |  | n.s. |  |  |
| CCOC(=O)[C@H]1c2[nH]c3ccccc3c2[C@H](c2ccc(N)cc2)[C@@H]2C(=O)N(Cc3ccccc3)C(=O)[C@@H]21 (racemic) [(±)-22c, Ethyl (3aRS,4SR,10RS,10aRS)-10-(4-aminophenyl)-2-benzyl-1,3-dioxo-1,2,3,3a,4,5,10,10a-octahydropyrrolo[3,4-b]carbazole-4-carboxylate∙HCl] | 0.025 ± 0.015 |  | n.s. | did not result in a significant inhibition |  |
| COC(=O)[C@H](CO)NC(=O)[C@H]1c2[nH]c3ccccc3c2[C@H](c2cc(OC)c(OC)c(OC)c2)[C@@H]2C(=O)NC(=O)[C@@H]21 [(+)-18a, Methyl N-{[(3aS,4R,10S,10aS)-1,3-dioxo-10-(3,4,5-trimethoxyphenyl)-1,2,3,3a,4,5,10,10a-octahydropyrrolo[3,4-b]carbazol-4-yl]carbonyl}-(S)-serinate] | 0.072 ± 0.002 | 9.1 |  |  |  |
| COC(=O)[C@H](CCSC)NC(=O)[C@@H]1c2[nH]c3ccccc3c2[C@@H](c2cc(OC)c(OC)c(OC)c2)[C@H]2C(=O)NC(=O)[C@H]21 [(–)-19b, Methyl N-{[(3aR,4S,10R,10aR)-1,3-dioxo-10-(3,4,5-trimethoxyphenyl)-1,2,3,3a,4,5,10,10a-octahydropyrrolo[3,4-b]carbazol-4-yl]carbonyl}-(S)-methioninate] | 0.094 ± 0.024 | 7.7 |  |  |  |

More lines, in order of falling Kd, values ahead:

| Kd [µM] | Ki [µM] | Inhibition of CK2α/CK2β Interaction Ki | Structure (SMILES) | Inhibition of CK2α/CK2β Interaction Ki (listed as 22c) | Inhibition of CK2α/CK2β Interaction Ki (listed as 23) |
| --- | --- | --- | --- | --- | --- |
| 0.158 ± 0.017 | 3.8 |  | COc1cc([C@@H]2c3c([nH]c4ccccc34)[C@@H](C(=O)NCCc3c[nH]c4ccccc34)[C@@H]3C(=O)NC(=O)[C@H]23)cc(OC)c1OC (racemic) [(±)-14, (3aRS,4SR,10RS,10aRS)-N-[2-(Indol-3-yl)ethyl]-1,3-dioxo-10-(3,4,5-trimethoxyphenyl)-1,2,3,3a,4,5,10,10a-octahydropyrrolo[3,4-b]carbazole-4-carboxamide] |  |  |
| 0.089 ± 0.013 | 7.4 |  | COc1cc([C@@H]2c3c([nH]c4ccccc34)[C@@H](C(=O)Nc3cccnc3)[C@@H]3C(=O)NC(=O)[C@H]23)cc(OC)c1OC (racemic) [(±)-15, (3aRS,4SR,10RS,10aRS)-1,3-Dioxo-N-(pyridin-3-yl)-10-(3,4,5-trimethoxyphenyl)-1,2,3,3a,4,5,10,10a-octahydropyrrolo[3,4-b]carbazole-4-carboxamide] |  |  |
| 0.059 ± 0.025 | 32 |  | CCOC(=O)[C@H]1c2[nH]c3ccccc3c2[C@H](c2cc(OC)c(OC)c(OC)c2)[C@@H]2C(=O)NC(=O)[C@@H]21 (racemic) [(±)-9a, Ethyl (3aRS,4SR,10RS,10aRS)-1,3-dioxo-10-(3,4,5-trimethoxyphenyl9a)-1,2,3,3a,4,5,10,10a-octahydropyrrolo[3,4-b]carbazole-4-carboxylate] |  |  |
| 0.024 ± 0.009 |  | n.s. | CCOC(=O)[C@@H]1c2[nH]c3ccccc3c2[C@@H](c2ccc(NC(=O)c3ccc(OC)cc3)cc2)[C@H]2C(=O)N(Cc3ccccc3)C(=O)[C@H]21 (racemic) [(±)-23, Ethyl (3aRS,4SR,10RS,10aRS)-2-benzyl-10-[4-(4-methoxybenzamido)phenyl]-1,3-dioxo-1,2,3,3a,4,5,10,10a-octahydropyrrolo[3,4-b]carbazole-4-carboxylate] |  | did not result in a significant inhibition |
| 0.02 ± 0.01 |  | n.s. | CCOC(=O)[C@@H]1c2[nH]c3ccccc3c2[C@@H](c2ccc([N+](=O)[O-])cc2)[C@H]2C(=O)NC(=O)[C@H]21 (racemic) [(±)-21a, Ethyl (3aRS,4SR,10RS,10aRS)-10-(4-nitrophenyl)-1,3-dioxo-1,2,3,3a,4,5,10,10a-octahydropyrrolo[3,4-b]carbazole-4-carboxylate] |  |  |
